The target in one experiment is T1, RPN11 (26S proteasome) (Homo sapiens, UniProt O00487).
T1 construct: purchased LifeSensors PS026
In words: Selectivity assay RPN11 (26S proteasome). Type of experiment: biochemical. Particulars: JAMM domain protease. Here is the method:
All biochemical assays were performed at room temperature in 384-well plates in a total volume of 25.25 μl per well. Test compounds were dissolved in 90% (v/v) DMSO/water. For the assays, 250 nl of compound solution was added per well, followed by addition of 12.5 μl protease solution. After 70 min of pre-incubation at room temperature, the reactions were started by addition of 12.5 μl substrate solution and followed either by measuring fluorescence intensity (rhodamine 110-based substrates) or by fluorescence lifetime (PT14-based substrates). The effect of compound on enzymatic activity was obtained from the linear part of the progress curves and determined after 1 h (t=60 min). The final compound concentrations ranged from 100 μM to 1 nM.
RPN11 (26S proteasome). Enzyme purchased from LifeSensors (catalogue number PS026); substrate: K48-linked tetra-ubiquitin chain coupled to a rhodamine 110 fluorophore purchased from LifeSensors (catalogue number NO13–158.01); enzyme concentration: 0.75 nM; substrate concentration: 100 nM; assay buffer: 20 mM Hepes at pH 7.4, 150 mM NaCl, 0.02% Tween-20, 0.5 mM TCEP, 0.05 mM MgCl2, 1 mM ATP and 2 μM ubiquitin aldehyde.

Experiment [1] deals with SU-DHL-1 cells. In words: Cell viability assay (CellTiter-Glo), SU-DHL-1. Type of experiment: cell-based, human. The protocol:
(§1) Cells were maintained in a humidified incubator at 37 °C and 5% CO2. […] All cells were negatively tested for mycoplasma contamination either by the vendor or in house. […] If not stated otherwise, cells were harvested after incubation for 16 h and subjected to SDS-PAGE and western blotting. The RNA interference experiment was performed with CSN5 stealth siRNA (#HSS116986) and stealth negative control siRNA (#12935-400) (Invitrogen), which were transfected at 10 nM into HCT116 cells using […] (Qiagen) according to the manufacturer's protocols. Seventy-two hours after transfection, cells were harvested and subjected to SDS-PAGE and western blotting (see Supplementary Fig. 7 for all western blottings performed). A standardized CellTiter-Glo Assay (Promega #G7570) based on the quantification of ATP was applied according to the manufacturer's protocol to measure the amount of viable cells in culture. In brief, cells were seeded into 384-well plates at optimal density for each cell line. After 4 h, compounds were added at different concentrations in growth medium and incubated for another 72 h in a humidifying chamber at 37 °C and 5% CO2. Eventually, equal amounts of CellTiter-Glo reagent were added directly to the cells, incubated for 15 min and luminescence was recorded using PHERAstar plate reader (BMG LABTECH GmbH).
(Cellular ATP, detected with luciferase, serves as a proxy for viable cell number.)

The subject of the next experiment is HCT116 cells. The experiment can be described thus: Cell viability assay (CellTiter-Glo), HCT116. The class given is cell-based, human. Particulars: HCT116, 72 h; cytotoxic. Here is the method:
as §1

Experiment [2] deals with SU-DHL-1 cells. The experiment can be described thus: Immunoblotting for PARP and caspase 3 in SU-DHL-1 cells. The class given is cell-based, human. Particulars: SU-DHL-1, 1 μM, 24 h or 48 h. Here is the method: Cells were maintained in a humidified incubator at 37 °C and 5% CO2. […] All cells were negatively tested for mycoplasma contamination either by the vendor or in house. […] If not stated otherwise, cells were harvested after incubation for 16 h and subjected to SDS-PAGE and western blotting. The RNA interference experiment was performed with CSN5 stealth siRNA (#HSS116986) and stealth negative control siRNA (#12935-400) (Invitrogen), which were transfected at 10 nM into HCT116 cells using […] (Qiagen) according to the manufacturer's protocols. Seventy-two hours after transfection, cells were harvested and subjected to SDS-PAGE and western blotting (see Supplementary Fig. 7 for all western blottings performed). […] Cells from longer compound incubations were also lysed in RIPA buffer, which allows the protein concentration to be determined by BCA Protein Assay Kit (Pierce). Proteins were separated by SDS-PAGE using 4-20% Tris-Glycine Gels (Invitrogen) and subsequently transferred to polyvinylidene difluoride membranes using a Trans-Blot Turbo System (BioRad). […] Horseradish peroxidase-conjugated secondary antibodies (1:3,000) were purchased from Promega AG and bound antibody was detected by enhanced chemiluminescence (Pierce). page 5: Supplementary Figure 5 a b 0 Cul1-Nedd8 Cul1-Nedd8 Cul1 -20 Cul1 Fbxo7 -40 Fbxo7 -60 Actin -80 Actin CDK6 -100 CDK6 […] […]

One compound from publication PMC5078989, “Targeted inhibition of the COP9 signalosome for treatment of cancer” (Nature Communications, 2016) can be followed below.

The IC50 is the concentration that inhibits the measured activity by half. Usually EC50 stands for the concentration that produces a half-maximal response. Turning to `CC(C)n1nc(C(F)F)cc1C(=O)Nc1ccc([C@H]2[C@@H](O)CCCc3cncn32)c(-c2ccccc2)c1` [CSN5i-3, 3-(Difluoromethyl)-N-(6-((5S,6S)-6-hydroxy-6,7,8,9-tetrahydro-5H-imidazo[1,5-a]azepin-5-yl)-[1,1′-biphenyl]-3-yl)-1-isopropyl-1H-pyrazole-5-carboxamide], half-maximal inhibition against RPN11 (26S proteasome) (IC50) required 53 ± 26 µM. For the same compound, the concentration for a half-maximal effect (EC50) in the experiment on SU-DHL-1 cells [1] (Homo sapiens, SU-DHL-1, 72 h, read-out: EC50 cell viability) was 13 nM. Further, the AMAX is at most −95% in the experiment with SU-DHL-1 cells [1] (SU-DHL-1 in vitro, 72 h) and at most −95% in the experiment with HCT116 cells. Besides, the “apoptosis markers (cleaved PARP, cleaved caspase 3)” value in the experiment with SU-DHL-1 cells [2] was “triggered the formation of cleaved PARP and cleaved caspase 3”.
